# Assay results reported in patent US11319289B2, “5-hydroxy pyridine-based compound for use as P2X1 and P2X3 receptor antagonist and pharmaceutical composition comprising same” (GWANGJU INSTITUTE OF SCIENCE AND TECHNOLOGY, priority 2017, dated 2022).
# What was measured:
# CYP450 3A4 = molecular target: T1, CYP450 3A4 (Homo sapiens, UniProt P08684); assay: CYP inhibition assay (Vivid fluorometric), 3A4; format: biochemical; conditions: 1 μM in Table 5
# T1 construct: purchased Invitrogen
# Description: CYP450 (1A2, 2C9, 3A4) enzyme assay was performed by a fluorometric assay using a Vivid® CYP450 screening kit (Invitrogen, USA, CA) in a 96-well black plate according to manufacturer's instructions with some modifications. The assay was performed at room temperature, and the final assay volume was 100 μL. […]
# A master pre-mixture (enzyme (0.5 nmol recombinant human CYP450 enzyme)/NADP regeneration solution (333 mM glucose-6-phosphate dissolved, 30 U/mL glucose-6-phosphate dehydrogenase in 100 mM KH2PO4 solution at pH 8.0)) was prepared as a CYP450 reaction buffer (200 mM KH2PO4, pH 8.0). The master pre-mixture was added to each well of the 96 well plate, followed by the vehicle DMSO (control) and test compounds, and the mixture was preincubated for 10 minutes in the plate for background reading. Subsequently, the enzyme reaction was immediately initiated through the addition of CYP450 substrate/NADP^+ mixture. After incubation for 40 minutes, the fluorescence of the product was measured with a CHAMELEON™ multi-technology plate reader (2C9, 3A4: excitation wavelength of 530 nm and emission wavelength of 590 nm, 1A2: excitation wavelength of 415 nm and emission wavelength of 460 nm). The effect of the test compounds on CYP450 (1A2, 2C9, 3A4) was expressed as the percentage of enzyme activity.
# hERG K+ channel = molecular target: T2, hERG K+ channel (Homo sapiens, UniProt Q12809); assay: hERG K+ channel patch-clamp assay in CHO-K1 Tet-On hERG cells; format: cell-based
# T2 construct: host or cells: CHO-K1 Tet-On hERG cells
# T2 sequence (Q12809 whole entry): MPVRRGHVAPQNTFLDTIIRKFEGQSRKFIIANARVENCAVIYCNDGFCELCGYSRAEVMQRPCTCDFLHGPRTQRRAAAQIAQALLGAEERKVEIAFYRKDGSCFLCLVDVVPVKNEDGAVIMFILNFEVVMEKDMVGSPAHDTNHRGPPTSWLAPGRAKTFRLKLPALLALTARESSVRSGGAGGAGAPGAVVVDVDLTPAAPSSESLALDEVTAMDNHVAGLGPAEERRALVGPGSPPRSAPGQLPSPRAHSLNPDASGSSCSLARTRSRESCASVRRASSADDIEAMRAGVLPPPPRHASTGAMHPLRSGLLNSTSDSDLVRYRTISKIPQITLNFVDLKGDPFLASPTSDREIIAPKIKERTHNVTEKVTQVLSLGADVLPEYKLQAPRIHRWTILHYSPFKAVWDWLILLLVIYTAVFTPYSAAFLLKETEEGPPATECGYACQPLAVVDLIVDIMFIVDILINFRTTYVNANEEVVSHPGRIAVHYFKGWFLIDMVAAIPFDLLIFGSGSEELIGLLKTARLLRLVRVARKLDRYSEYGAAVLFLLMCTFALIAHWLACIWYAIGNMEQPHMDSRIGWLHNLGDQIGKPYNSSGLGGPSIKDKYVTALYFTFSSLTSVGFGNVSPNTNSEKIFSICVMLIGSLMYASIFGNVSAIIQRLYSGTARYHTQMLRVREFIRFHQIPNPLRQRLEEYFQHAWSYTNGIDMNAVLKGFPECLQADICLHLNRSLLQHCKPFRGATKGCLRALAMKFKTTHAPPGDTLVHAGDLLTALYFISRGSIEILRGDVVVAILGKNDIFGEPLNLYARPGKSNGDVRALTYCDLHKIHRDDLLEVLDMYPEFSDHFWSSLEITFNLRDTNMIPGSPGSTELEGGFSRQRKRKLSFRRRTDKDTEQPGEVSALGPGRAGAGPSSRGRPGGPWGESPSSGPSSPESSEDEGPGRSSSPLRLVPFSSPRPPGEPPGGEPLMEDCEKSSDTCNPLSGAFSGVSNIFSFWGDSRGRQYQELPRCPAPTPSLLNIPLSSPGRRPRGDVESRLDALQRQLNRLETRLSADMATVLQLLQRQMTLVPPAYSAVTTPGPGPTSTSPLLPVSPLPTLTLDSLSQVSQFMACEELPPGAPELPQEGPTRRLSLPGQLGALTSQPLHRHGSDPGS
# Description: 2-2. hERF Channel Test Method
# hERG K^+ Channel Conventional Patch-Clamp Assay
# CHO-K1 cells expressing hERG channels via an inducible Tet-On gene expression system (CHO-K1 Tet-On hERG cells) were purchased from IonGate Biosciences GmbH (Frankfurt, Germany). CHO-K1 Tet-On hERG cells were incubated in Dulbecco's modified Eagle's medium (DMEM) containing 10% (v/v) fetal bovine serum, penicillin (100 U/mL), streptomycin (100 μg/mL), fungizone (2.5 μg/mL), as well as selection antibiotics, geneticin G418 (200 μg/mL), hygromycin (200 μg/mL) and puromycin (2 μg/mL) in a humidified condition of 5% CO2 at 37° C. The cells were passaged by treatment with trypsin-EDTA every three days. […]
# NPC-16 Patchliner (Nanion Technologies, Munchen, Germany), an automated patch-clamp apparatus, was used for the whole-cell recordings. Whole-cell currents were recorded using an intracellular solution (unit in mM) containing 50 KCl, 60 KF, 10 NaCl, 2 MgCl2, 20 EGTA and 10 HEPES (pH 7.2) and an extracellular solution (unit in mM) containing 140 NaCl, 4 KCl, 2 CaCl2, 1MgCl2, 5 glucose and 10 HEPES (pH 7.4). […]
# hERG channel currents were recorded using a parallel EPC-10 patch clamp amplifier (HEKA Elektronik, Lambrecht/Pfalz, Germany), and low-pass filtering (10 kHz) was performed with a 4-pole Bessel filter. […]
# T1 sequence (P08684 whole entry): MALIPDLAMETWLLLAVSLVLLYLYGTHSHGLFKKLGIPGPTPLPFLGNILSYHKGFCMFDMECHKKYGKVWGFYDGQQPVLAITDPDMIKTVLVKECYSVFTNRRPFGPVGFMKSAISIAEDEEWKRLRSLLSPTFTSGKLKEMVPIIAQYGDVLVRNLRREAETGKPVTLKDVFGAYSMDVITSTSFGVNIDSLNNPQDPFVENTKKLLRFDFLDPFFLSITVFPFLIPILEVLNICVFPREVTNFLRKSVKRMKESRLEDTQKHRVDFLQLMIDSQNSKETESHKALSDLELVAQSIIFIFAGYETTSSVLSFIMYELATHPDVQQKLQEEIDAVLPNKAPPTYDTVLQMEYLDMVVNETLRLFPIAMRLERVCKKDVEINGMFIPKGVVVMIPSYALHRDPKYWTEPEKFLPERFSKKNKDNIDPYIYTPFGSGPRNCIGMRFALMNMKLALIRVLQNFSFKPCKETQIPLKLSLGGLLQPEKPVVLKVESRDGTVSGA
compound,measurement,setting,value
"CCCc1nc(Cc2cccc(Oc3ccccc3)c2)c(C)c(C(=O)O)c1O [Compound 29, 3-Hydroxy-5-methyl-6-(3-phenoxybenzyl)-2-propylisonicotinic acid]","CYP450 inhibition, 3A4 isozyme",CYP450 3A4,weak inhibitory effect
same,IC50,"hERG K+ channel; patch clamp, CHO-K1 Tet-On hERG cells",> 100 µM
same,in vitro inhibitory activity against hERG channels,hERG K+ channel; result in words,did not show any inhibitory activity
